# Reference: ChEMBL document CHEMBL1201862, “PubChem BioAssay data set” (2004)
#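 Step 1: Grow cells in 96-well plates. Step 2: Expose to compound for 48 hours at 5 concentrations. Step 3: Interpolate endpoints linearly; if unreached, use highest concentration. Here, GI50 denotes the concentration required for 50% inhibition of growth.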 Calls of active or inactive are those of the source. No stated cut-off is given here; in the data, active = GI50 up to about 1.1 µM and inactive = higher.
# Assays:
# Experiment in all cases: DTP human tumour cell line panel, 48 h
# HCC 2998 = system: HCC 2998
# LXFL 529 = system: LXFL 529
# MDA-N = system: MDA-N
# SK-MEL-5 = system: SK-MEL-5
# SK-MEL-28 = system: SK-MEL-28
# HL-60 = system: HL-60
# M14 = system: M14
# HOP-92 = system: HOP-92
# SK-OV-3 = system: SK-OV-3
# DMS-273 = system: DMS-273
# Hs-578T = system: Hs-578T
# OVCAR-3 = system: OVCAR-3
# EKVX = system: EKVX
# HCT-15 = system: HCT-15
# A498 = system: A498
# OVCAR-4 = system: OVCAR-4
# CAKI-1 = system: CAKI-1
# A549 = system: A549
# SF-539 = system: SF-539
# U-251 = system: U-251
smiles,measurement,setting,value
NC(CS)C(=O)NCCNc1ccc(NCCNC(=O)C(N)CS)c2c1C(=O)c1c(O)ccc(O)c1C2=O (stereo not given),GI50,HCC 2998,0.225 µM (active)
same,GI50,LXFL 529,0.106 µM (active)
same,GI50,MDA-N,0.359 µM (active)
same,GI50,SK-MEL-5,0.0948 µM (active)
same,GI50,SK-MEL-28,0.628 µM (active)
same,GI50,HL-60,0.00175 µM (active)
same,GI50,M14,0.0248 µM (active)
same,GI50,HOP-92,0.00638 µM (active)
same,GI50,SK-OV-3,0.0124 µM (active)
same,GI50,DMS-273,0.00168 µM (active)
same,GI50,Hs-578T,0.137 µM (active)
same,GI50,OVCAR-3,0.405 µM (active)
same,GI50,EKVX,0.32 µM (active)
same,GI50,HCT-15,0.112 µM
same,GI50,A498,0.0771 µM (active)
same,GI50,OVCAR-4,0.204 µM (active)
same,GI50,CAKI-1,0.0243 µM (active)
same,GI50,A549,0.00251 µM (active)
same,GI50,SF-539,0.0259 µM (active)
same,GI50,U-251,0.00579 µM (active)
